What was measured:
A549 [1] = test: Antitumor activity against human A549 cells xenografted in BALB/c mouse lung tumor model assessed as tumor inhibition rate at 1 mg/kg, ip measured every day for 21 days by caliper method relative to control; type: functional; conditions: A549, 504 h, time 21 day
MDA-MB-231 = test: Antiproliferative activity against human MDA-MB-231 cells assessed as inhibition of cell growth incubated for 48 hrs by MTT assay; type: functional, cell-based; conditions: MDA-MB-231, 48 h
HCT-116 = test: Antiproliferative activity against human HCT-116 cells assessed as inhibition of cell growth incubated for 48 hrs by MTT assay; type: functional, cell-based; conditions: HCT-116, 48 h
A549 [2] = test: Antiproliferative activity against human A549 cells expressing Hsp90 protein assessed as inhibition of cell growth incubated for 48 hrs by MTT assay; type: functional, cell-based; conditions: A549, 48 h
A549 [3] = test: Antiproliferative activity against human A549 cells expressing Hsp90-Cdc37 protein assessed as inhibition of cell growth incubated for 48 hrs by MTT assay; type: functional, cell-based; conditions: A549, 48 h
A549 [4] = test: Antiproliferative activity against human A549 cells expressing Cdc37 protein assessed as inhibition of cell growth incubated for 48 hrs by MTT assay; type: functional, cell-based; conditions: A549, 48 h
A549 [5] = test: Antitumor activity against human A549 cells xenografted in BALB/c mouse lung tumor model assessed as tumor weight at 1 mg/kg, ip measured every day for 21 days by caliper method; type: functional; conditions: time 21 day
A549 [6] = test: Antiproliferative activity against human A549 cells assessed as inhibition of cell growth incubated for 48 hrs by MTT assay; type: functional, cell-based; conditions: A549, 48 h
U2OS = test: Antiproliferative activity against human U2OS cells assessed as inhibition of cell growth incubated for 48 hrs by MTT assay; type: functional, cell-based

Row | Structure (SMILES) | inhibition in vivo at 1 mg/kg (A549 [1]) [%] | IC50 (MDA-MB-231) [nM] | IC50 (HCT-116) [nM] | IC50 (A549 [2]) [nM] | IC50 (A549 [3]) [nM] | IC50 (A549 [4]) [nM] | Activity (A549 [5]) [g] | IC50 (A549 [6]) [nM] | IC50 (U2OS) [nM]
1 | CC1=C(O)C(=O)C=C2C1=CC=C1[C@@]2(C)CC[C@@]2(C)[C@@H]3C[C@](C)(C(=O)O)CC[C@]3(C)CC[C@]12C [CELASTROL] | 52.7 | 1980 | 1810 | > 100000 | > 100000 | > 100000 | 0.67 | 1680 | 1860
2 | CC1=C(O)C(=O)C=C2C1=CC=C1[C@@]2(C)CC[C@@]2(C)[C@@H]3C[C@](C)(C(=O)OCCCCn4cc([N+](=O)[O-])nc4Cl)CC[C@]3(C)CC[C@]12C |  | 1020 | 720 |  |  |  |  | 790 | 620
3 | CC1=C(O)C(=O)C=C2C1=CC=C1[C@@]2(C)CC[C@@]2(C)[C@@H]3C[C@](C)(C(=O)OCCCCCn4cnc(C#N)c4C#N)CC[C@]3(C)CC[C@]12C |  | 1570 | 790 |  |  |  |  | 1450 | 1470
4 | CC1=C(O)C(=O)C=C2C1=CC=C1[C@@]2(C)CC[C@@]2(C)[C@@H]3C[C@](C)(C(=O)OCCCn4cc([N+](=O)[O-])nc4Br)CC[C@]3(C)CC[C@]12C |  | 1150 | 660 |  |  |  |  | 800 | 600
5 | CC1=C(O)C(=O)C=C2C1=CC=C1[C@@]2(C)CC[C@@]2(C)[C@@H]3C[C@](C)(C(=O)OCCCCCCn4cc([N+](=O)[O-])nc4Cl)CC[C@]3(C)CC[C@]12C |  | 990 | 1120 |  |  |  |  | 900 | 910
6 | CC1=C(O)C(=O)C=C2C1=CC=C1[C@@]2(C)CC[C@@]2(C)[C@@H]3C[C@](C)(C(=O)OCCCn4cnc(C#N)c4C#N)CC[C@]3(C)CC[C@]12C |  | 1450 | 720 |  |  |  |  | 790 | 1450
7 | COC(=O)c1cn(CCCCCOC(=O)[C@]2(C)CC[C@]3(C)CC[C@]4(C)C5=CC=C6C(=CC(=O)C(O)=C6C)[C@]5(C)CC[C@@]4(C)[C@@H]3C2)cn1 |  | 1550 | 670 |  |  |  |  | 780 | 880
8 | CC1=C(O)C(=O)C=C2C1=CC=C1[C@@]2(C)CC[C@@]2(C)[C@@H]3C[C@](C)(C(=O)OCCCn4cnc(C)c4)CC[C@]3(C)CC[C@]12C |  | 1550 | 1290 |  |  |  |  | 1970 | 1450
9 | CC1=C(O)C(=O)C=C2C1=CC=C1[C@@]2(C)CC[C@@]2(C)[C@@H]3C[C@](C)(C(=O)OCCCCCn4cc([N+](=O)[O-])nc4Cl)CC[C@]3(C)CC[C@]12C |  | 930 | 780 |  |  |  |  | 750 | 600
10 | CC1=C(O)C(=O)C=C2C1=CC=C1[C@@]2(C)CC[C@@]2(C)[C@@H]3C[C@](C)(C(=O)OCCCCCn4cc([N+](=O)[O-])nc4Br)CC[C@]3(C)CC[C@]12C |  | 980 | 1100 |  |  |  |  | 810 | 670
11 | CC1=C(O)C(=O)C=C2C1=CC=C1[C@@]2(C)CC[C@@]2(C)[C@@H]3C[C@](C)(C(=O)OCCCCCCn4ccnc4[N+](=O)[O-])CC[C@]3(C)CC[C@]12C |  | 1210 | 640 |  |  |  |  | 730 | 830
12 | CC1=C(O)C(=O)C=C2C1=CC=C1[C@@]2(C)CC[C@@]2(C)[C@@H]3C[C@](C)(C(=O)OC/C=C/Cn4cc([N+](=O)[O-])nc4Cl)CC[C@]3(C)CC[C@]12C |  | 980 | 700 |  |  |  |  | 810 | 610
13 | COC(=O)c1cn(CCCOC(=O)[C@]2(C)CC[C@]3(C)CC[C@]4(C)C5=CC=C6C(=CC(=O)C(O)=C6C)[C@]5(C)CC[C@@]4(C)[C@@H]3C2)cn1 |  | 1650 | 690 |  |  |  |  | 740 | 1350
14 | CC1=C(O)C(=O)C=C2C1=CC=C1[C@@]2(C)CC[C@@]2(C)[C@@H]3C[C@](C)(C(=O)OCCCn4ccnc4[N+](=O)[O-])CC[C@]3(C)CC[C@]12C |  | 900 | 1050 |  |  |  |  | 750 | 800
15 | COC(=O)c1cn(CCCCCCOC(=O)[C@]2(C)CC[C@]3(C)CC[C@]4(C)C5=CC=C6C(=CC(=O)C(O)=C6C)[C@]5(C)CC[C@@]4(C)[C@@H]3C2)cn1 |  | 1920 | 1340 |  |  |  |  | 1090 | 1480
16 | CC1=C(O)C(=O)C=C2C1=CC=C1[C@@]2(C)CC[C@@]2(C)[C@@H]3C[C@](C)(C(=O)OCCCn4ccnc4)CC[C@]3(C)CC[C@]12C |  | 1550 | 1090 |  |  |  |  | 1570 | 1650
17 | CC1=C(O)C(=O)C=C2C1=CC=C1[C@@]2(C)CC[C@@]2(C)[C@@H]3C[C@](C)(C(=O)OCCCn4cnc([N+](=O)[O-])c4)CC[C@]3(C)CC[C@]12C |  | 690 | 630 |  |  |  |  | 670 | 700
18 | CC1=C(O)C(=O)C=C2C1=CC=C1[C@@]2(C)CC[C@@]2(C)[C@@H]3C[C@](C)(C(=O)OCCCCCn4cnc([N+](=O)[O-])c4)CC[C@]3(C)CC[C@]12C |  | 600 | 610 |  |  |  |  | 710 | 600
19 | CC1=C(O)C(=O)C=C2C1=CC=C1[C@@]2(C)CC[C@@]2(C)[C@@H]3C[C@](C)(C(=O)OCCCCCn4ccnc4[N+](=O)[O-])CC[C@]3(C)CC[C@]12C |  | 980 | 600 |  |  |  |  | 710 | 680
20 | CC1=C(O)C(=O)C=C2C1=CC=C1[C@@]2(C)CC[C@@]2(C)[C@@H]3C[C@](C)(C(=O)OCCCCCCn4cnc(C#N)c4C#N)CC[C@]3(C)CC[C@]12C |  | 1660 | 1160 |  |  |  |  | 1080 | 1730
21 | CC1=C(O)C(=O)C=C2C1=CC=C1[C@@]2(C)CC[C@@]2(C)[C@@H]3C[C@](C)(C(=O)OCCCCn4cnc(C#N)c4C#N)CC[C@]3(C)CC[C@]12C |  | 1670 | 1530 |  |  |  |  | 1660 | 1580
22 | COC(=O)c1cn(CCCCOC(=O)[C@]2(C)CC[C@]3(C)CC[C@]4(C)C5=CC=C6C(=CC(=O)C(O)=C6C)[C@]5(C)CC[C@@]4(C)[C@@H]3C2)cn1 |  | 1870 | 950 |  |  |  |  | 1040 | 1520
23 | COC(=O)[C@]12CCC(C)(C)C[C@H]1[C@H]1C(=O)C=C3[C@@]4(C)C=C(C#N)C(=O)C(C)(C)[C@@H]4CC[C@@]3(C)[C@]1(C)CC2 [BARDOXOLONE METHYL] |  | 560 | 840 |  |  |  |  | 630 | 740
24 | CC1=C(O)C(=O)C=C2C1=CC=C1[C@@]2(C)CC[C@@]2(C)[C@@H]3C[C@](C)(C(=O)OC/C=C/Cn4cnc([N+](=O)[O-])c4)CC[C@]3(C)CC[C@]12C |  | 1030 | 640 |  |  |  |  | 710 | 710
25 | CC1=C(O)C(=O)C=C2C1=CC=C1[C@@]2(C)CC[C@@]2(C)[C@@H]3C[C@](C)(C(=O)OCCCCn4cnc([N+](=O)[O-])c4)CC[C@]3(C)CC[C@]12C |  | 890 | 700 |  |  |  |  | 770 | 890
26 | CC1=C(O)C(=O)C=C2C1=CC=C1[C@@]2(C)CC[C@@]2(C)[C@@H]3C[C@](C)(C(=O)OCCCCCCn4cnc([N+](=O)[O-])c4)CC[C@]3(C)CC[C@]12C |  | 950 | 630 |  |  |  |  | 790 | 880
27 | CC1=C(O)C(=O)C=C2C1=CC=C1[C@@]2(C)CC[C@@]2(C)[C@@H]3C[C@](C)(C(=O)OCCCCn4ccnc4[N+](=O)[O-])CC[C@]3(C)CC[C@]12C |  | 1020 | 1550 |  |  |  |  | 1060 | 910
28 | CC1=C(O)C(=O)C=C2C1=CC=C1[C@@]2(C)CC[C@@]2(C)[C@@H]3C[C@](C)(C(=O)OCCCCn4cc([N+](=O)[O-])nc4Br)CC[C@]3(C)CC[C@]12C |  | 1220 | 1850 |  |  |  |  | 930 | 680
29 | CC1=C(O)C(=O)C=C2C1=CC=C1[C@@]2(C)CC[C@@]2(C)[C@@H]3C[C@](C)(C(=O)OCCCCCCn4cc([N+](=O)[O-])nc4Br)CC[C@]3(C)CC[C@]12C |  | 1050 | 1930 |  |  |  |  | 1320 | 1460
